Measured values: US20030162782A1, “Treatment of neuropathy” (priority 1999, published 2003)

Key:
[1] = system: patients with diabetic polyneuropathy; assay: Anecdotal reports in patients with diabetic polyneuropathy after single doses of sildenafil; type: in vivo, human; conditions: single doses of 50 mg
[2] = system: men demonstrating positive symptoms of diabetic neuropathy; assay: Clinical trial of sildenafil versus placebo (crossover) with pain assessments (PDI, VAS Pain Score, Verbal Evaluation of Pain Relief); type: in vivo, human; conditions: 50 mg every night for 10 days, pain assessed by PDI, VAS Pain Score and Verbal Evaluation of Pain Relief
Experimental: The study was conducted using sidenafil, however it will be appreciated that the study may be conducted with other cGMP PDE5 inhibitors, for example one or more of the preferred cGMP PDE5 inhibitors listed hereinabove.
The patients then underwent a 7-day treatment-free phase in order to establish baseline data, including a series of pain assessments comprising determining the Pain Disability Index (PDI) (adapted from Tait et al 1990), the Visual Analogue Scale (VAS) Pain Score, and the Verbal Evaluation of Pain Relief. They were then treated with either sildenafil (50 mg) or placebo every night for 10 days and immediately after this period the patient's degree of pain was reassessed. A washout period of 10 days followed where the patients received no treatment. […] Immediately after this period the patient's degree of pain was assessed.
Pain Disability Index (PDI) is determined by patient questionnaire, and measures the overall impact of pain (on a scale of 0 to 10) associated with normal daily activities, (i.e. family/home responsibilities, recreation, social activity, occupation, self-care, sleeping). […]
Visual Analogue Scale (VAS) Pain Score is determined by the patient indicating on a continuous line from 0 (=no pain) to 100 (=pain as bad as it could be) the average level of a pain experienced during the assessment period. […]

Row | Structure (SMILES) | melting point | painful symptoms [1] | degree of pain experienced [2]
1 | CCCOc1ncc(C(C)=O)cc1-c1nc2c(CC)n(C3CN(C(C)C)C3)nc2c(=O)[nH]1 [Example 4, 5-(5-Acetyl-2-propoxy-3-pyridinyl)-3-ethyl-2-(1-isopropyl-3-azetidinyl)-2,6-dihydro-7H-pyrazolo[4,3-d]pyrimidin-7-one] | 162.8 to 163.6 °C |  | 
2 | CCCc1nn(C)c2c(=O)[nH]c(-c3cc(S(=O)(=O)N4CCN(C)CC4)ccc3OCC)nc12 [sildenafil, 5-[2-ethoxy-5-(4-methyl-1-piperazinylsulphonyl)phenyl]-1-methyl-3-n-propyl-1,6-dihydro-7H-pyrazolo[4,3-d]pyrimidin-7-one] |  | improvement in painful symptoms | reduction in the degree of pain experienced in a number of patients
